Laboratory results from PubChem BioAssay (NCI).
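How tested: cells in 96-well plates exposed to compound for 48 hours at five concentrations. GI50 = concentration required for 50% inhibition of growth. TGI denotes the concentration required for complete inhibition of growth.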

How the values were obtained:
Assay in all cases: growth of human tumour cells (NCI), 48 h
NCI-H226 lung = tested on: NCI-H226 lung
HS 578T breast = tested on: HS 578T breast
MDA-MB-231 breast = tested on: MDA-MB-231 breast
SNB-19 CNS = tested on: SNB-19 CNS
HT29 colon = tested on: HT29 colon
UACC-257 melanoma = tested on: UACC-257 melanoma
M14 melanoma = tested on: M14 melanoma
TK-10 renal = tested on: TK-10 renal
OVCAR-4 ovarian = tested on: OVCAR-4 ovarian
SF-268 CNS = tested on: SF-268 CNS
SK-MEL-5 melanoma = tested on: SK-MEL-5 melanoma

Row | SMILES | TGI (NCI-H226 lung) | TGI (HS 578T breast) | TGI (MDA-MB-231 breast) | TGI (SNB-19 CNS) | TGI (HT29 colon) | TGI (UACC-257 melanoma) | TGI (M14 melanoma) | TGI (TK-10 renal) | TGI (OVCAR-4 ovarian) | TGI (SF-268 CNS) | TGI (SK-MEL-5 melanoma) | GI50 (NCI-H226 lung) | GI50 (OVCAR-4 ovarian) | GI50 (SF-268 CNS) | GI50 (SNB-19 CNS) | GI50 (HT29 colon) | GI50 (SK-MEL-5 melanoma) | GI50 (UACC-257 melanoma) | GI50 (TK-10 renal)
1 | Nc1ncnc2c1ncn2[C@@H]1C[C@@H]1CO | > 100 µM | > 100 µM | > 100 µM | > 100 µM | > 100 µM | > 100 µM |  |  |  |  |  |  |  |  |  |  |  |  | 
2 | O=C(Oc1ccccn1)c1cc2cc(CCl)ccc2oc1=O | > 100 µM | 59.6 µM | 46.6 µM | 71.2 µM | > 100 µM | > 100 µM | > 100 µM | > 100 µM | 55 µM | 39.2 µM | > 100 µM |  |  |  |  |  |  |  | 
3 | Cn1c(=O)c(-c2ccccc2)c(N=[N+]=[N-])c2ccccc21 | > 100 µM | > 100 µM | > 100 µM | > 100 µM | 49.9 µM | > 100 µM | > 100 µM | > 100 µM | > 100 µM | > 100 µM | > 100 µM |  |  |  |  |  |  |  | 
4 | Nc1nc(SC/C=C/c2ccccc2)c2[nH]cnc2n1 | > 100 µM | 88.8 µM | > 100 µM | > 100 µM | > 100 µM | > 100 µM | > 100 µM | > 100 µM | > 100 µM | > 100 µM | > 100 µM |  |  |  |  |  |  |  | 
5 | N#CCCN(C(=O)Nc1ccccc1)[C@H]1CCCC[C@@H]1N(C(=O)Nc1ccccc1)c1ccccc1 | > 100 µM |  | > 100 µM | > 100 µM | > 100 µM | > 100 µM | > 100 µM | > 100 µM | > 100 µM |  | > 100 µM |  |  |  |  |  |  |  | 
6 | CCOC(=O)NC(Nc1ccc(S(=O)(=O)Nc2nc(C)cc(C)n2)cc1)(C(=O)OCC)C(F)(F)F (stereo not drawn) | > 100 µM | > 100 µM | > 100 µM | > 100 µM | > 100 µM |  | > 100 µM | > 100 µM | > 100 µM | > 100 µM | > 100 µM |  |  |  |  |  |  |  | 
7 | CN=C(N=Nc1c(O)[nH]c2ccccc12)SCC(=O)c1ccc(Br)cc1 | 48.4 µM | > 40 µM | 19.8 µM | > 100 µM | > 43.5 µM | > 20 µM | 39.3 µM | 37.7 µM | > 100 µM | > 48.7 µM | > 93.2 µM |  |  |  |  |  |  |  | 
8 | COc1ccc(-[n+]2nc(S(=O)(=O)O)c(/C=C/c3ccc(N(C)C)cc3)cc2C#N)cc1 | > 100 µM | > 100 µM | > 100 µM | > 100 µM | > 100 µM | > 100 µM | > 100 µM | > 100 µM | > 100 µM | > 100 µM | > 100 µM |  |  |  |  |  |  |  | 
9 | CCC(/C=C/C1OC(=O)C=CC1C)=C\C(C)C/C=C/C(C)=C/C(C)C(=O)C(C)C(O)C(C)C/C(C)=C/C(=O)O (stereo not drawn) |  | 0.000594 µM |  | 13.2 µM | 13 µM | 6.25 µM | 3.68e-05 µM |  |  | 7.64 µM |  | 0.00172 nM | < 1 pM | 1.89 µM | 0.0253 nM | 4.95 µM | 0.408 µM | 0.000294 µM | 
10 | O=C1C(c2c(O)[nH]c3ccc(F)cc23)=Nc2ccccc21 | > 100 µM | > 100 µM | 54.6 µM | > 100 µM | > 100 µM | > 100 µM | > 100 µM | > 100 µM |  | > 100 µM | > 100 µM |  |  |  |  |  |  |  | 
11 | COc1ccc2cc(/C=N/NC(=O)Nc3ccccc3)ccc2c1 | > 100 µM | > 100 µM | > 100 µM | > 100 µM | > 100 µM | > 100 µM | > 100 µM | > 100 µM | > 100 µM |  | > 100 µM |  |  |  |  |  |  |  | 
12 | COc1ccc(P2(=S)OC(C)(C)C(C)(C)O2)cc1 | > 100 µM | > 100 µM | > 100 µM | > 100 µM | > 100 µM | > 100 µM | > 100 µM | > 100 µM | > 100 µM |  | > 100 µM |  |  |  |  |  |  |  | 
13 | O=c1c(/C=C/c2c(O)ccc3ccccc23)nnc2sc(-c3cccc(Br)c3)nn12 |  | > 100 µM |  | > 100 µM | 82.1 µM | > 100 µM | 66.4 µM |  | 31.9 µM | > 100 µM | 37.5 µM |  |  |  |  |  |  |  | 
14 | CC(O)C1(CNc2cc(Cl)nc(N)n2)CCC1 (stereo not drawn) | > 100 µM | > 100 µM | > 100 µM | > 100 µM | > 100 µM | > 100 µM |  | > 100 µM | > 100 µM |  | > 100 µM |  |  |  |  |  |  |  | 
15 | COC(=O)c1cc2ccc(N)nc2[nH]c1=O | > 100 µM |  | > 100 µM | > 100 µM |  | > 100 µM | > 100 µM | > 100 µM | > 100 µM | > 100 µM | > 100 µM |  |  |  |  |  |  |  | 
16 | CSc1ncnc2c1ncn2CCC(=O)OC(C)(C)C | > 100 µM |  | > 100 µM | > 100 µM | > 100 µM | > 100 µM | > 100 µM | > 100 µM | > 100 µM | > 100 µM | > 100 µM |  |  |  |  |  |  |  | 
17 | Cn1ccc(C(=O)NCCN(CCNC(=O)c2ccn(C)c(=O)c2O)CCNC(=O)c2cccc(=O)n2O)c(O)c1=O | > 100 µM | > 100 µM | > 100 µM | > 100 µM | > 100 µM | > 100 µM | > 100 µM |  | > 100 µM | > 100 µM | > 100 µM |  |  |  |  |  |  |  | 
18 | O=C(Nc1nc(C23CC4CC(CC(C4)C2)C3)cs1)c1cc2ccc(O)cc2oc1=O | 49 µM | 37.8 µM | 48.7 µM | 80.6 µM | 27.4 µM | 44.1 µM |  | > 100 µM | 44 µM | 39.9 µM | 39 µM |  |  |  |  |  |  |  | 
19 | C=C(C)[C@@H]1CC[C@]2(C(=O)NC3CCCCC3)CC[C@]3(C)[C@H](CC[C@@H]4[C@@]5(C)CCCNC(C)(C)[C@@H]5CC[C@]43C)[C@@H]12 | 36.2 µM |  |  | 33.3 µM |  | 3.31 µM |  | 3.6 µM |  | 26 µM |  | 4830 nM |  | 5.29 µM | 5510 nM |  |  | 1.72 µM | 1.87 µM
20 | CN(C)C1(N(C)C)Oc2c(c(=O)n(C)c(=O)n2C)C(c2ccccc2)C1(F)F (stereo not drawn) | > 100 µM |  | > 100 µM | > 100 µM |  | > 100 µM | > 100 µM | > 100 µM | > 100 µM | > 100 µM | > 100 µM |  |  |  |  |  |  |  | 
21 | N#Cc1c(N)n(-c2cccc(C(=O)O)c2)c(=O)c2cc([N+](=O)[O-])ccc12 | > 100 µM | > 100 µM | > 100 µM | > 100 µM | > 100 µM | > 100 µM |  | > 100 µM | > 100 µM | > 100 µM | > 100 µM |  |  |  |  |  |  |  | 
